Reference: patent US20250152706A1, “COMPOSITIONS FOR ORAL DELIVERY OF BIOTHERAPEUTICS” (INTRACT PHARMA LIMITED, priority 2022, published 2025)
Entries after “also recorded” stand apart in the source; their conditions may differ. Where two headings read alike, the source gives them in different places.

Experiments:
[1] = Ussing chamber penetration of infliximab into rat colon tissue, ELISA; conditions: 2 h
Protocol: (§1) The chambers are made of solid acrylic and supports the tissue membrane in such a way that each side of the membrane is isolated and faces a different chamber representing the luminal (apical) and blood (basal) compartments. The working system consists of a unit to fit a maximum of six vertical chambers, a gas manifold for carbogen purging (95% O2, 5% CO2) and a heater block to maintain the temperature of the chambers at 37° C. during the experiments with the use of a circulating water bath. The chambers are two-piece assemblies held together by a high spring-tension retaining ring to ensure leak-free operation during the experiments. […]
(§2) For the tissue penetration studies, the freshly excised small intestine (jejunum) and proximal colon tissue of healthy wistar rats was collected and transferred to an ice-cold solution of Krebs-Bicarbonate Ringer solution (KBr) of pH 7.4. […] The TEER was continuously monitored during the experiment to confirm the viability and integrity of the tissue. […]
(§3) Infliximab sample analysis (permeability studies) was performed using an indirect ELISA platform assay. […] The plate was read at a wavelength of 650 nm with the plate reader (Synergy LX Multimode Reader, Biotek).
(§4) Permeability of the drug infliximab across rat small intestine (jejunum) and colon tissue was measured with and without 5-ALA and the base, L-arginine. […]

[2] = Stability of oxytocin in rat caecum slurry, RP-HPLC; conditions: for effect of the excipient on oxytocin stability, in words: rat caecum slurry, Examples 6 and 7; for remaining at 2 h, 1 mg/ml: Wistar, rat, pH 5.5, % Drug at T = 2 h, oxytocin 1 mg/ml, aprotinin 1 mg/ml in rat caecum slurry
Protocol: The rat caecum slurry was based on combination of cecum and proximal colon fluids collected from healthy wistar rats weighing 250 g. The fluids were collected immediately after sacrificing the rats and transferred to an anaerobic workstation (Electrotek 500TG™ workstation, Electrotek, West Yorkshire, UK) maintained at 37° C. and 70% relative air humidity. The fluids were diluted with freshly prepared basal medium to obtain a 50% w/w caecum fluid by homogenization. The homogenized mixture was sieved through an open mesh fabric. The pH of the fluid was measured as 5.5.
Peptide stock solution (oxytocin) were prepared in PBS at 2 mg/ml concentrations. Concentrations of 10 mg/ml and 40 mg/ml 5-ALA, 40 mg/ml methyl-ALA, 40 mg/ml hexyl-ALA and 2 mg/ml aprotinin were prepared. Stock solutions containing certain oxytocin combinations were added to 50% rat caecum slurry to obtain incubation concentrations (Examples 6 and 7) of 1 mg/ml peptide, 5 mg/ml or 20 mg/ml 5-ALA, 20 mg/ml methyl-ALA, 20 mg/ml hexyl-ALA, 1 mg/ml aprotinin, and 25% w/w rat caecum slurry. Samples were withdrawn at appropriate time points and added to 0.1N HCl solution in a ratio of 1:3. The samples were centrifuged at 9.6 g for 10 mins and the supernatant was analysed by reversed phase-HPLC (RP-HPLC).
A 150×4.6-mm Luna 5 μm C18 100 Å (Phenomenex, Torrance, CA) column was used using a gradient system as below:
Each sample's injection volume was 20 μl, the mobile phase flow rate was 1 ml/min and the peptide was detected at 214 nm. Each sample was run for 23 mins.
Stability of the drug oxytocin in rat caecum slurry was measured with and without 5-ALA and aprotinin, an enzyme inhibitor. Each experiment was conducted in duplicate/triplicate. The oxytocin remaining at different time points was measured by RP-HPLC.
Stability of the drug oxytocin in rat caecum slurry was measured with and without methyl-ALA, hexyl-ALA and aprotinin, an enzyme inhibitor. Each experiment was conducted in duplicate/triplicate. The oxytocin remaining at different time points was measured by RP-HPLC.

[3] = Stability of infliximab in human colon fluid (human colon model), SE-HPLC; assay type: in vitro ADME; conditions: for effect of the excipient on infliximab stability, in words: human colon fluid, Examples 1 and 4
Protocol: A human colonic model based on a mixed faecal inoculum was used to mimic the luminal environment of the human large intestine. […] The basal media provides nutrients and growth factors to the microbiota allowing viability for up to 24 hours. The homogenized bacterial media was sieved through an open mesh fabric (SefarNitex™, pore size 350 μm) to remove any nonhomogeneous fibrous material. The pH was maintained at approximately 7.0 to mimic the colonic luminal pH of the human.
Stability of the drug/antibody infliximab in human colon fluid was measured with and without 5-ALA at varying concentrations. Each experiment was conducted in duplicate/triplicate.
Stability of the drug infliximab in human colon fluid was measured with and without 5-ALA and L-arginine at varying concentrations. Each experiment was conducted in duplicate/triplicate.
Stability of the drug infliximab in human colon fluid was measured with and without 5-ALA and aprotinin at varying pH. Each experiment was conducted in duplicate/triplicate.
Each experiment was conducted in duplicate/triplicate.

[4] = Ussing chamber penetration of infliximab into rat small intestine tissue, ELISA; conditions: 2 h, Examples 8-10
Protocol: as §1, §2, §3, §4

[5] = Ussing chamber penetration of oxytocin into rat colon tissue, RP-HPLC; assay type: in vitro ADME; conditions: Example 12
Protocol: as §1, §2
(§5) Permeability of the drug oxytocin across rat small intestine (jejunum) and colon tissue was measured with and without 5-ALA. The peptide in the tissue at 2 h and was measured by RP-HPLC.

[6] = Protocol: Antibody stock solution (infliximab) was prepared in PBS at a 2 mg/ml concentration. 5-ALA was prepared at concentrations 10, 20 or 40 mg/ml. Methyl-ALA, hexyl-ALA, salcaprozate sodium, (SNAC) and sodium chenodeoxycholate were prepared at 20 mg/ml concentrations. The base L-arginine was prepared at 11, 22 or 44 mg/ml, and the stabiliser aprotinin was prepared at a 2 mg/ml concentration.
A 300×8.0-mm YMC-Pack Diol-200 S-5 μm, 20 nm (YMC Co Ltd, Kyoto, Japan) size exclusion (SE) chromatography column was used for sample separation using phosphate buffer saline (pH 7.3) prepared in sterile HPLC grade water as the mobile phase for elution, at a flow rate of 0.5 ml/min. The analysis was operated at room temperature and UV detection wavelength was set at 214 nm. Each sample was run for 40 minutes to allow complete elution of the sample proteins and reduce run-over.
Stability of the drug infliximab in rat caecum slurry was measured with and without SNAC, sodium chenodeoxycholate, hexyl-ALA and aprotinin. Each experiment was conducted in duplicate/triplicate. The antibody remaining at different time points was measured by SE-HPLC.

[7] = Ussing chamber penetration of oxytocin into rat small intestine tissue, RP-HPLC; conditions: 2 h, Examples 12-14
Protocol: as §1, §2, §5
Permeability of oxytocin across rat small intestine (jejunum) was measured with and without 5-ALA, methyl-ALA and hexyl-ALA. The peptide in the tissue at 2 h and was measured by RP-HPLC. […]

[8] = Example 1, infliximab 1 mg/ml in human colon fluid, 5-ALA.HCl 5 mg/ml (pH 5.5), 10 mg/ml (pH 4.9), 20 mg/ml (pH 4.1)
[9] = Example 2, infliximab 1 mg/ml in human colon fluid, 5-ALA phosphate + L-arginine 5 + 5.5 mg/ml (pH 6.4), 10 + 11 mg/ml (6.5), 20 + 22 mg/ml (pH 6.5), 5-ALA phosphate 20 mg/ml + NaOH (pH 6.4)
[10] = Example 4, infliximab 1 mg/ml, 5-ALA.HCl / methyl-ALA / hexyl-ALA 10 mg/ml, aprotinin 1 mg/ml in human colon fluid, pH 6.5

## NCC(=O)CCC(=O)O [Formulation 5-ALA, 5-aminolevulinic acid]
[1]; rat colon tissue, Example 8
  effect of the excipient on infliximab permeation / tissue uptake, in words: did not lead to permeation or improved tissue uptake of infliximab
[2]
  effect of the excipient on oxytocin stability, in words: acts as a stabiliser and increases the amount of peptide present in the caecum slurry
[3]
  effect of the excipient on infliximab stability, in words: provides antibody stability; also recorded: does not stabilize the antibody in a dose dependent manner
[4]
  effect of the excipient on infliximab permeation / tissue uptake, in words: did not lead to permeation or improved tissue uptake of infliximab
[5]; rat colon tissue, 2 h
  effect of the excipient on oxytocin permeation / tissue level, in words: acts as a permeability enhancer and increases the amount of oxytocin

## CC[C@H](C)[C@@H]1NC(=O)[C@H](Cc2ccc(O)cc2)NC(=O)[C@@H](N)CSSC[C@@H](C(=O)N2CCC[C@H]2C(=O)N[C@@H](CC(C)C)C(=O)NCC(N)=O)NC(=O)[C@H](CC(N)=O)NC(=O)[C@H](CCC(N)=O)NC1=O [Oxytocin]
[2]; Example 6, 5-ALA.HCl 20 mg/ml
  remaining at 2 h, 1 mg/ml: 10.9 ± 3.4%
[2]; Example 7, methyl-ALA / hexyl-ALA 20 mg/ml
  remaining at 2 h, 1 mg/ml: 5 ± 2%
[5]; oxytocin 1 mg/ml, 5-ALA.HCl 20 mg/ml
  % Drug in colon tissue at 2 h: 0.0 ± 0.0%

## O=C([O-])CCCCCCCNC(=O)c1ccccc1O.[Na+] [SNAC, salcaprozate sodium]
[6]
  effect of the excipient on infliximab stability, in words: provide no stabilisation

## CCCCCCOC(=O)CCC(=O)CN [hexyl-ALA, hexyl aminolevulinic acid]
[2]
  effect of the excipient on oxytocin stability, in words: provide some peptide stabilisation
[3]
  effect of the excipient on infliximab stability, in words: greater antibody stabilisation
[6]
  effect of the excipient on infliximab stability, in words: provide good antibody stability

## COC(=O)CCC(=O)CN [methyl-ALA, methyl aminolevulinic acid]
[3]
  effect of the excipient on infliximab stability, in words: greater antibody stabilisation

## CCCCCCCCCC(=O)[O-].[Na+] [sodium caprate]
[1]; rat colon tissue pre-treated with NAC, Example 11
  effect of the excipient on infliximab tissue level, in words: may have led to increased tissue levels of antibody
[7]
  effect of the excipient on oxytocin permeation / tissue level, in words: greatest increase in oxytocin tissue levels

## C[C@H](CCC(=O)[O-])[C@H]1CC[C@H]2[C@@H]3[C@H](O)C[C@@H]4C[C@H](O)CC[C@]4(C)[C@H]3CC[C@]12C.[Na+] [sodium chenodeoxycholate]
[6]
  effect of the excipient on infliximab stability, in words: provide no stabilisation

## Infliximab: monoclonal antibody; existing commercial IBD therapeutic antibody, tested alone as control
[3]; [8]
  % Drug at T = 2 h: 21.5 ± 0.0%
  % Drug at T = 4 h: 7.8 ± 0.0%
[3]; [9]
  % Drug at T = 2 h: 16.5 ± 0.4%
  % Drug at T = 4 h: 6.5 ± 0.3%
[3]; [10]
  % Drug at T = 2 h: 37.6 ± 3.5%
  % Drug at T = 4 h: 16.1 ± 0.6%

## aprotinin
[6]
  effect of the excipient on infliximab stability, in words: provides an antibody stabilisation effect
